Results taken from ChEMBL document CHEMBL2010682, “Asperolides A-C, tetranorlabdane diterpenoids from the marine alga-derived endophytic fungus Aspergillus wentii EN-48” (J Nat Prod, 2012).
Converted amounts (≈) assume the structure as drawn. The source made the active and inactive calls. The rule behind the calls is not given here.

Assays:
MDA-MB-231 = test: Cytotoxicity against human MDA-MB-231 cells; format: functional, cell-based
HepG2 = test: Cytotoxicity against human HepG2 cells; format: functional, cell-based
HeLa = test: Cytotoxicity against human HeLa cells; format: functional, cell-based
Candida albicans = test: Antifungal activity against Candida albicans after 18 hrs by broth microdilution method; format: functional
MCF7 = test: Cytotoxicity against human MCF7 cells; format: functional, cell-based
NCI-H460 = test: Cytotoxicity against human NCI-H460 cells; format: functional, cell-based
SW1990 = test: Cytotoxicity against human SW1990 cells; format: functional, cell-based
SMMC-7721 = test: Cytotoxicity against human SMMC7721 cells; format: functional, cell-based
Pseudomonas fluorescens = test: Antibacterial activity against Pseudomonas fluorescens after 18 hrs by broth microdilution method; format: functional
Staphylococcus aureus = test: Antibacterial activity against methicillin-resistant Staphylococcus aureus after 18 hrs by broth microdilution method; format: functional
[1] = tested on: Staphylococcus epidermidis; test: Antibacterial activity against Staphylococcus epidermidis after 18 hrs by broth microdilution method; format: functional
Pseudomonas aeruginosa = test: Antibacterial activity against Pseudomonas aeruginosa after 18 hrs by broth microdilution method; format: functional
[2] = Homo sapiens, MDA-MB-231, read-out: IC50
[3] = Homo sapiens, HeLa, read-out: IC50
[4] = Homo sapiens, MCF7, read-out: IC50
[5] = Homo sapiens, NCI-H460, read-out: IC50
[6] = Homo sapiens, SW1990, read-out: IC50
[7] = Homo sapiens, HepG2, read-out: IC50
[8] = Homo sapiens, SMMC-7721, read-out: IC50

With `C[C@]12C(=O)O[C@@H]3C=C4COC(=O)C=C4[C@@](C)(C=C[C@@H]1O)[C@@H]32` the IC50 (MDA-MB-231; [2]) was 42 µM, the IC50 (HepG2; hepg2) was “Not Active” and the IC50 (HeLa; [3]) was 63 µM. It also gave an MIC (Candida albicans) of 16 µg/mL (≈ 55.5 µM), an IC50 (MCF7; [4]) of 38 µM and an IC50 (NCI-H460; [5]) of 42 µM. For the same compound, the IC50 (SW1990; [6]) was 63 µM.
With `C=C1[C@@H](O)C[C@@H]2[C@](C)(CCC[C@]2(C)C(=O)O)[C@H]1CC(=O)O` the IC50 (MDA-MB-231; mda-mb-231) was “Not Active”, the IC50 (HepG2; hepg2) was “Not Active” and the IC50 (HeLa; hela) was “Not Active”. The MIC (Candida albicans) was “inactive”, the IC50 (SMMC-7721; smmc-7721) was “Not Active” and the IC50 (MCF7; mcf7) was “Not Active”. For the same compound, the IC50 (NCI-H460; nci-h460) was “Not Active” and the IC50 (SW1990; sw1990) was “Not Active”.
`CC1(C)S[C@@H]2[C@H](NC(=O)[C@H](N)c3ccccc3)C(=O)N2[C@H]1C(=O)O` [AMPICILLIN] gave an MIC (Pseudomonas fluorescens) of 2 µg/mL (≈ 5.72 µM), an MIC (Staphylococcus aureus) of 8 µg/mL (≈ 22.9 µM) and an MIC [1] of 4 µg/mL (≈ 11.4 µM). For the same compound, the MIC (Pseudomonas aeruginosa) was 4 µg/mL (≈ 11.4 µM).
In the case of `C[C@]12C3=CC(=O)OCC3=C[C@H]3OC(=O)[C@@](C)(C=C[C@H]1O)[C@H]32` [ASPEROLIDE A], the IC50 (HepG2; [7]) is reported as 63 µM, the IC50 (HeLa; [3]) is reported as 97 µM and the MIC (Candida albicans) is reported as “inactive”. For the same compound, the IC50 (SMMC-7721; [8]) was 52 µM, the IC50 (MCF7; mcf7) was “Not Active” and the IC50 (NCI-H460; [5]) was 42 µM. It also gave an IC50 (SW1990; [6]) of 69 µM.
`C[C@@]12C3=CC(=O)OCC3=C[C@H]3OC(=O)[C@](C)([C@H]31)[C@H]1O[C@H]1[C@H]2O` [ASPEROLIDE B] was tested, and the IC50 (MDA-MB-231; [2]) was 35 µM, the IC50 (HepG2; hepg2) was “Not Active” and the IC50 (HeLa; [3]) was 56 µM. The IC50 (MCF7; [4]) was 63 µM, the IC50 (NCI-H460; [5]) was 63 µM and the IC50 (SW1990; [6]) was 69 µM.
`COc1cccc2c1C(=O)c1c(O)c3c(c(O)c1C2=O)C[C@@](O)(C(=O)CO)C[C@@H]3O[C@H]1C[C@H](N)[C@H](O)[C@H](C)O1` [DOXORUBICIN] was tested, and the IC50 (MDA-MB-231; [2]) was 4 µM, the IC50 (HepG2; [7]) was 7 µM and the IC50 (HeLa; [3]) was 5 µM. For the same compound, the IC50 (SMMC-7721; [8]) was 172 µM and the IC50 (MCF7; [4]) was 7 µM.
`O=c1[nH]cc(F)c(=O)[nH]1` [FLUOROURACIL] showed an IC50 (MDA-MB-231; [2]) of 62 µM, an IC50 (HepG2; [7]) of 108 µM and an IC50 (HeLa; [3]) of 108 µM. The IC50 (SMMC-7721; [8]) was 15 µM, the IC50 (NCI-H460; [5]) was 8 µM and the IC50 (SW1990; [6]) was 123 µM.
For `C[C@@]12C3=CC(=O)OCC3=C[C@H]3OC(=O)[C@](C)([C@H]31)[C@@H](O)[C@H]1O[C@H]12` [WENTILACTONE A], the IC50 (HepG2; [7]) was 35 µM, the IC50 (HeLa; [3]) was 52 µM and the MIC (Candida albicans) was “inactive”. It also gave an IC50 (SMMC-7721; [8]) of 28 µM, an IC50 (MCF7; [4]) of 69 µM and an IC50 (NCI-H460; [5]) of 28 µM. It also gave an IC50 (SW1990; [6]) of 42 µM.
With `C[C@@]12C[C@@H](O)C[C@]3(C)C4=CC(=O)OCC4=C[C@@H](OC1=O)[C@@H]23` [WENTILACTONE B] the IC50 (HepG2; [7]) was 38 µM, the IC50 (HeLa; [3]) was 42 µM and the MIC (Candida albicans) was “inactive”. The IC50 (SMMC-7721; [8]) was 17 µM, the IC50 (MCF7; [4]) was 56 µM and the IC50 (NCI-H460; [5]) was 24 µM. The IC50 (SW1990; [6]) was 24 µM.
NYSTATIN gave an MIC (Candida albicans) of 2 µg/mL.
